Results reported in publication PMC8466613, “Cocaine Detection by a Laser-Induced Immunofluorometric Biosensor” (Biosensors, 2021).

Test system: T1, monoclonal anti-benzoylecgonine/cocaine (BEC) antibody IP3G2
T1 construct: monoclonal antibody, clone IP3G2, mouse, subtype IgG1
Test: indirect competitive ELISA with chemiluminescence detection against BEC-BSA; also competitive immunofluorometric biosensor with Dy-654-labelled antibody
Assay type: binding, Mus musculus

## COC(=O)[C@H]1[C@@H](OC(=O)c2ccccc2)C[C@@H]2CC[C@H]1N2C [cocaine]
  IC50: ~0.75 nM
